Test results published in paper PMC11237924, “A neutral invertase controls cell division besides hydrolysis of sucrose for nutrition during germination and seed setting in rice” (iScience, 2024).

T1: OsNIN8 (MBP-OsNIN8), neutral invertase 8 (Oryza sativa, UniProt Q69T31, D275A/E501A)
T1 construct: gene CINV1; N-terminal MBP fusion (pETMALc-H), tag kept, expressed in E. coli BL21(DE3), amylose resin purified
T1 sequence (Q69T31 1-562 D275A/E501A): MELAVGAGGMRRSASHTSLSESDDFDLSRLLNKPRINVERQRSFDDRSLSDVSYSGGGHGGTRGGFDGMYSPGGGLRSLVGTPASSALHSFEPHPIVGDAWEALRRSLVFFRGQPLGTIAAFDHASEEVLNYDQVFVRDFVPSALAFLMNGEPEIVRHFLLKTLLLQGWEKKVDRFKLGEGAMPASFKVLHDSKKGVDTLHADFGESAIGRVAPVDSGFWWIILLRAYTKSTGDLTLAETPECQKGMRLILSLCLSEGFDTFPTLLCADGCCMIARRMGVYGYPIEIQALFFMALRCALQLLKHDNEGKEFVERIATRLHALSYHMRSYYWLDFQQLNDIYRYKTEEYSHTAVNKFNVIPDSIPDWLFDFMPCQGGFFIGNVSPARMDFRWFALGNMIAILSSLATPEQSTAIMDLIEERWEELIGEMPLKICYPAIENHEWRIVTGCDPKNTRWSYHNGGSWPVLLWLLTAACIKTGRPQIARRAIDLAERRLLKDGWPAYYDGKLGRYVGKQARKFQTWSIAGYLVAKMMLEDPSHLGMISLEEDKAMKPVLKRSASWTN

T2: OsNIN8 (MBP-OsNIN8), neutral invertase 8 (Oryza sativa, UniProt Q69T31, E501A)
T2 construct: gene CINV1; N-terminal MBP fusion (pETMALc-H), tag kept, expressed in E. coli BL21(DE3), amylose resin purified
T2 sequence (Q69T31 1-562 E501A): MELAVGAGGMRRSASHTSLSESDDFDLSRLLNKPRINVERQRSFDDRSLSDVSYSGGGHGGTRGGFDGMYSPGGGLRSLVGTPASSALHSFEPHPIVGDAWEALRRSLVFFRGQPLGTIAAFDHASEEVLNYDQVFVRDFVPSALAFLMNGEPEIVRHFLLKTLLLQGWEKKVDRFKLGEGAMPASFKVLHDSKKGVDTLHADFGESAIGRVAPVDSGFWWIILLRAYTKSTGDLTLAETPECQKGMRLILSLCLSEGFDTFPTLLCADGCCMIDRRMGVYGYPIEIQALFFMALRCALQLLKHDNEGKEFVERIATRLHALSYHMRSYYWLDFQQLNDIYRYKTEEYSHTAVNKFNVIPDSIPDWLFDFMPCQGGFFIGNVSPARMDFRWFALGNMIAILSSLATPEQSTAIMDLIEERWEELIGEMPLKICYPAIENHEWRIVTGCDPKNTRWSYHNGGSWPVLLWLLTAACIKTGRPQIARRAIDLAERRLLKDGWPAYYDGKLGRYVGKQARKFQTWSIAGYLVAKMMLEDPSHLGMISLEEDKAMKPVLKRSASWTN

T3: OsNIN8 (MBP-OsNIN8), neutral invertase 8 (Oryza sativa, UniProt Q69T31, D275A)
T3 construct: gene CINV1; N-terminal MBP fusion (pETMALc-H), tag kept, expressed in E. coli BL21(DE3), amylose resin purified
T3 sequence (Q69T31 1-562 D275A): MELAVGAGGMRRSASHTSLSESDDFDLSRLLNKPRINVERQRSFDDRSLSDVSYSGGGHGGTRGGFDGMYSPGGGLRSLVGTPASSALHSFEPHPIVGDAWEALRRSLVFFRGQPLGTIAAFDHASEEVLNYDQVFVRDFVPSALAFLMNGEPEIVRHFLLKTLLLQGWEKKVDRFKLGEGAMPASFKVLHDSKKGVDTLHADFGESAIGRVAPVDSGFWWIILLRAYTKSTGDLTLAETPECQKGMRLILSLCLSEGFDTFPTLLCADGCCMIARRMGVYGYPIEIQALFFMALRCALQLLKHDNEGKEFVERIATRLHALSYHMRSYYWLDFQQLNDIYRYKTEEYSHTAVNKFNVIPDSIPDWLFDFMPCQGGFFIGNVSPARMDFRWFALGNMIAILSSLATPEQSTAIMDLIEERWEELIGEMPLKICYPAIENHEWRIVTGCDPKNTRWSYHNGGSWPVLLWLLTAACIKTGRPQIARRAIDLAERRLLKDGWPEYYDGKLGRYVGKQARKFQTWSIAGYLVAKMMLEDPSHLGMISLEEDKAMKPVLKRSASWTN

T4: OsNIN8 (MBP-OsNIN8), neutral invertase 8 (Oryza sativa, UniProt Q69T31, G461R)
T4 construct: gene CINV1; N-terminal MBP fusion (pETMALc-H), tag kept, expressed in E. coli BL21(DE3), amylose resin purified
T4 sequence (Q69T31 1-562 G461R): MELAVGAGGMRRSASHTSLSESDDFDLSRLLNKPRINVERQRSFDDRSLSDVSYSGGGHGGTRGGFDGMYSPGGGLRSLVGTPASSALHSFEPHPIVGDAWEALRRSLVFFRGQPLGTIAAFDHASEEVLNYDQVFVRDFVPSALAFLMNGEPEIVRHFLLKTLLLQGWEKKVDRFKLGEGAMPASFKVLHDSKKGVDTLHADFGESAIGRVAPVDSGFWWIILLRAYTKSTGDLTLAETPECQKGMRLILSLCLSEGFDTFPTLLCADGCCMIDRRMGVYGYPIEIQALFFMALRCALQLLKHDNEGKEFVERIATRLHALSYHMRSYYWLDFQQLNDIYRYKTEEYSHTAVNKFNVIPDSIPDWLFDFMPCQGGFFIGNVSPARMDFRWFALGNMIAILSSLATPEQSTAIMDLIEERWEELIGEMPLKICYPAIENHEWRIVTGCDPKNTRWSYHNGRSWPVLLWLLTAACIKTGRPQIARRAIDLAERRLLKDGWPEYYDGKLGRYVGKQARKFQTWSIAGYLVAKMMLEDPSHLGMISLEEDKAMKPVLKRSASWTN


Experiments:
[1] = molecular target: T1, OsNIN8 (MBP-OsNIN8), neutral invertase 8; test: ITC incremental titration; format: binding; settings: 25 °C, 0.1 mM protein, 10 mM sucrose in syringe; catalytic-residue mutant
[2] = molecular target: T2, OsNIN8 (MBP-OsNIN8), neutral invertase 8; test: ITC incremental titration; format: binding; settings: 25 °C, 0.1 mM protein, 10 mM sucrose in syringe; catalytic-residue mutant
[3] = molecular target: T3, OsNIN8 (MBP-OsNIN8), neutral invertase 8; test: ITC incremental titration; format: binding; settings: 25 °C, 0.1 mM protein, 10 mM sucrose in syringe; catalytic-residue mutant
[4] = molecular target: T4, OsNIN8 (MBP-OsNIN8), neutral invertase 8; test: pulldown on amylose magnetic beads with GC-TOF MS; ITC titration; format: binding; settings: 50 mM potassium phosphate pH 6.4, 25 °C; OsNIN8m, retains residual sucrose hydrolysis
purified protein = substrate: OC[C@H]1O[C@@](CO)(O[C@H]2O[C@H](CO)[C@@H](O)[C@H](O)[C@H]2O)[C@@H](O)[C@@H]1O; test: purified protein; format: biochemical, Oryza sativa; settings: 50 mM potassium phosphate pH 6.4, fit over 0-20 mM sucrose (substrate inhibition above 20 mM)

Molecule	ITC incremental titration [1]	ITC incremental titration [2]	ITC incremental titration [3]	pulldown on amylose magnetic beads with GC-TOF MS; ITC titration [4]	Km (purified protein) [µM]
OC[C@H]1O[C@@](CO)(O[C@H]2O[C@H](CO)[C@@H](O)[C@H](O)[C@H]2O)[C@@H](O)[C@@H]1O [Sucrose]	all had not hydrolytic activity on sucrose, showed their bindings to sucrose were exotherm	all had not hydrolytic activity on sucrose, showed their bindings to sucrose were exotherm	all had not hydrolytic activity on sucrose, showed their bindings to sucrose were exotherm	OsNIN8m bound more sucrose than OsNIN8 did	–
OsNIN8 (MBP-OsNIN8), neutral invertase 8 (Oryza sativa Japonica Group) (protein, N-terminal MBP fusion (pETMALc-H), tag kept, expressed in E. coli BL21(DE3), amylose resin purified) MELAVGAGGMRRSASHTSLSESDDFDLSRLLNKPRINVERQRSFDDRSLSDVSYSGGGHGGTRGGFDGMYSPGGGLRSLVGTPASSALHSFEPHPIVGDAWEALRRSLVFFRGQPLGTIAAFDHASEEVLNYDQVFVRDFVPSALAFLMNGEPEIVRHFLLKTLLLQGWEKKVDRFKLGEGAMPASFKVLHDSKKGVDTLHADFGESAIGRVAPVDSGFWWIILLRAYTKSTGDLTLAETPECQKGMRLILSLCLSEGFDTFPTLLCADGCCMIDRRMGVYGYPIEIQALFFMALRCALQLLKHDNEGKEFVERIATRLHALSYHMRSYYWLDFQQLNDIYRYKTEEYSHTAVNKFNVIPDSIPDWLFDFMPCQGGFFIGNVSPARMDFRWFALGNMIAILSSLATPEQSTAIMDLIEERWEELIGEMPLKICYPAIENHEWRIVTGCDPKNTRWSYHNGGSWPVLLWLLTAACIKTGRPQIARRAIDLAERRLLKDGWPEYYDGKLGRYVGKQARKFQTWSIAGYLVAKMMLEDPSHLGMISLEEDKAMKPVLKRSASWTN	–	–	–	–	2718 ± 347
